From PMC5651862 (Scientific Reports, 2017)

How the values were obtained:
[1] = target: T1, full-length human RXRα (Homo sapiens, UniProt P19793); assay: RXRα-dependent luciferase reporter gene transactivation in HEK293 cells; settings: HEK293, 18 h, up to 10 µM
T1 sequence (P19793 1-462): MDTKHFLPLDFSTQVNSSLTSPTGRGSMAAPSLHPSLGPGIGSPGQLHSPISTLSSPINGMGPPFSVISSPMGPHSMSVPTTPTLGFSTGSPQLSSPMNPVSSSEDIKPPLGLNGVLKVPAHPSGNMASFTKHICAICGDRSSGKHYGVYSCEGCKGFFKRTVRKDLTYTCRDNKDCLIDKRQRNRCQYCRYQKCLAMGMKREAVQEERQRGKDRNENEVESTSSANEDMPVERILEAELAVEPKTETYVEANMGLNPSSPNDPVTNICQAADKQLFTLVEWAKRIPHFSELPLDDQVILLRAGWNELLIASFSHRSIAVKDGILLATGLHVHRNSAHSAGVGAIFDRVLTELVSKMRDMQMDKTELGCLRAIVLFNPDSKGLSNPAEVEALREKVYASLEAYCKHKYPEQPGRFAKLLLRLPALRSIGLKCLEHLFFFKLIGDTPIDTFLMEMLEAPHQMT

[2] = target: T2, full-length human PPARγ (Homo sapiens, UniProt P37231); assay: PPARγ-dependent luciferase reporter gene transactivation in HEK293 cells
T2 sequence (P37231 1-477 isoform P37231-2): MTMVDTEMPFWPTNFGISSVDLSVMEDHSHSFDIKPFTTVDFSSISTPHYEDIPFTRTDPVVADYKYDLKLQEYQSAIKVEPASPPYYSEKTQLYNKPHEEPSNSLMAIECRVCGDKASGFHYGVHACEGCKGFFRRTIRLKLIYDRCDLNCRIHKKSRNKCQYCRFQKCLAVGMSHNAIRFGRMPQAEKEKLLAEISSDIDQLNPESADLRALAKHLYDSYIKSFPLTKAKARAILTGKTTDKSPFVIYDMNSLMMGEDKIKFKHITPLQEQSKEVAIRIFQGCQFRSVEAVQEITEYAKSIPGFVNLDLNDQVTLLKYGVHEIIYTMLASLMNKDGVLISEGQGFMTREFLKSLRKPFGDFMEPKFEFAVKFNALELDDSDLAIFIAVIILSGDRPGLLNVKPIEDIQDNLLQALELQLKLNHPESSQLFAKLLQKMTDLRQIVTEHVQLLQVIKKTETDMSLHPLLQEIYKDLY

[3] = target: T3, purified human PPARγ LBD (Homo sapiens, UniProt P37231); assay: LanthaScreen TR-FRET PPARγ competitive binding assay
T3 construct: purchased Invitrogen
T3 sequence (P37231 238-503 limits assumed): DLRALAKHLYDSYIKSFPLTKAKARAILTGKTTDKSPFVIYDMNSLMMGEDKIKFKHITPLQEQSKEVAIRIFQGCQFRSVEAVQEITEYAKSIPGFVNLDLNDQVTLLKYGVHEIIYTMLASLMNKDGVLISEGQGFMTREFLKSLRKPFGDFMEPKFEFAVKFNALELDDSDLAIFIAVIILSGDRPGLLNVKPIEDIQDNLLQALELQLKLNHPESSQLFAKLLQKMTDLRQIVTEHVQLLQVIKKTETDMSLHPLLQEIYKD
Procedure: In this assay a fluorescently labeled ligand (Fluormone, Invitrogen) is displaced upon binding of the tested compound leading to a decrease in the FRET signal. Binding to the receptor was assessed in a concentration-dependent manner. […] Compounds that bind to the PPARγ LBD displace the fluorescently labeled ligand […]. […] Data points are represented as mean ± SEM from four independent experiments performed in duplicate. […] HEK-293 cells were transfected as described in the Methods section and stimulated for 18 h, as indicated. Luciferase activity was normalized to EGFP-derived fluorescence. Results are expressed as fold induction compared with the solvent control (DMSO, 0.1%). EC50 values were calculated using a sigmoidal curve fit with variable slope. […] HEK293 cells were transfected as described in the Methods section, treated as indicated for 18 h and luciferase activity measured as under (A). All data are shown as means ± SD of at least three independent experiments performed in quadruplicate. […] The compounds were dissolved in DMSO (solvent vehicle) and incubated together with the human PPARγ LBD tagged with GST, terbium-labeled anti-GST antibody and fluorescently labeled PPAR ligand (Fluormone™ Pan-PPAR Green). Binding of a ligand results in a fluorescence resonance energy transfer (FRET) after excitation of terbium at 340 nm and in an emission at 520 nm. Test compounds binding to the human PPARγ LBD are competing with the fluorescently labeled ligand and displacing it, resulting in a decrease of the FRET signal. […] All quantifications were performed with a GeniosPro plate reader (Tecan).
To calculate the EC50 values data were curve fitted and non-linear transformed using a sigmoidal dose response with variable slope.

[4] = Resazurin conversion assay (cytotoxicity); type: cell-based; settings: human, HEK293 cells, HEK293, vs DMSO 0.1%, read-out: cell viability
Procedure: Assessment of cytotoxicity […]
on cell viability assessed by the resazurin conversion assay in HEK293 cells. HEK293 cells were […]
conversion was measured after 4 hours. Results are expressed as % cell viability compared to the solvent control DMSO (0.1%). Data are expressed as means ± SD of three independent experiments performed in quadruplicate. (One-way ANOVA, Dunnett´s test, p<0.01**). […]
resofurin. Conversion of this non-fluorescent agent to resofurin depends on redox equivalents provided by cellular metabolism. Thus, the conversion (fluorescence signal) is direct proportional to the number of viable cells and thus to cell viability. HEK293 cells (ATCC, Manassas, VA) were seeded in 96-well plates at a density of 40,000 cells per well and incubated for 24 hours in DMEM supplemented with 2 mM glutamine, 100 U/ml benzylpenicillin, 100 μg/ml streptomycin, and 10% fetal bovine serum. Next day, cells were incubated with increasing concentrations of the indicated […]
After 24 hours of incubation with the test compounds cells were washed again in PBS and then incubated with 10 μg/mL resazurin […]
solution in PBS. After 4 hours plates were read on a Tecan GeniosPro plate reader using an excitation wavelength of 535 nm and an emission wavelength of 580 nm. […]

[5] = test system: 3T3-L1 preadipocytes; assay: Adipocyte differentiation in 3T3-L1 pre-adipocytes (Oil Red O); type: cell-based; settings: 1–10 µM, 8 days, insulin 1 µg/mL
Procedure: PPARγ plays a major role in adipocyte differentiation and in the regulation of adipose-related genes that are involved in developing the adipose phenotype. […]
solution in PBS. After 4 hours plates were read on a Tecan GeniosPro plate reader using an excitation wavelength of 535 nm and an emission wavelength of 580 nm.
Adipocyte differentiation in 3T3-L1 cells
Insulin control Rosiglitazone (1 µM) […]
dimer (1). 3T3-L1 cells were incubated in medium containing insulin (1 µg/mL) for 8 days with or […]
µM) was used as positive control. The medium was exchanged every second day. At day 8, cells were fixed in 10% formaldehyde, stained with Oil Red O and photographed (A). Oil Red O was then […]
solubilized and quantified at 550 nm using a plate reader (B). Lipid accumulation is expressed as fold increase compared to the insulin/solvent control (1 µg/mL insulin in 0.1 % DMSO) and is expressed as means ± SD of three independent experiments (One-way ANOVA, Bonfferoni post test, p<0.05 *). […]
Medium was exchanged every second day. After eight days, lipid accumulation (as a measure of adipogenic differentiation) was determined by Oil Red O staining as described previously.5 For this, cells were fixed in 10% formaldehyde for 1 h and stained with Oil Red O for 10 minutes. […]

[6] = target: T4, PPARγ/RXRα heterodimer (Homo sapiens, UniProt P19793+P37231); assay: PPARγ/RXRα heterodimer-induced luciferase reporter transactivation in co-transfected HEK293 cells; type: cell-based; settings: 18 h
T4 construct: transfected with 6 μg of full-length human PPARγ and full-length human RXRα expression plasmid, respectively or both; expressed in transfected cells; host or cells: HEK293
T4 sequence (P37231 1-477 isoform P37231-2): T2 sequence (P37231 1-477 isoform P37231-2)
T4 sequence (P19793 1-462): T1 sequence (P19793 1-462)
From the text: Luciferase activity was normalized to EGFP-derived fluorescence.

EC50 [2] [nM]	Emax PPARγ-dependent luciferase transactivation ([2]; HEK293, 18 h, Emax values ± SD, results as fold induction vs DMSO)	efficacy compared to pioglitazone ([2]; HEK293, Emax relative to full agonist pioglitazone)	fold lower potency compared to magnolol ([2]; ratio of EC50 values)	Ki ([3]; competitive displacement of Fluormone Pan-PPAR Green, Cheng-Prusoff, four independent experiments in duplicate) [nM]	fold higher affinity to human PPARγ LBD compared to magnolol ([3]; ratio of Ki values)	fold higher affinity to human PPARγ LBD compared to pioglitazone ([3]; ratio of Ki values)	fold activation of PPARγ/RXRα heterodimer, co-treatment with bexarotene ([6]; 10 µM compound plus full RXR agonist bexarotene, HEK293 co-transfected) [fold]	fold activation of PPARγ/RXRα heterodimer ([6]; 10 µM, HEK293 co-transfected with PPARγ and RXRα, vs DMSO 0.2%) [fold]	SMILES	RXRα-dependent luciferase gene expression (result in words) [1]	RXRα-dependent luciferase gene expression (result in words) ([1]; listed as the dimer)	viability at 24 h, 10 µM [4] [%]	viability at 24 h, 30 µM [4] [%]	adipocyte differentiation (result in words) [5]
1520	4.67 ± 0.26	around 62%	about 1.5 fold	5.03	more than 12 fold	more than 16 fold	13.20 ± 3.98	3.82 ± 1.22	C=CCc1ccc(O)c(-c2cc(CC=CCCCc3cc(O)c(-c4cc(CC=C)ccc4O)cc3CC=C)ccc2O)c1 [magnolol dimer (1)]	does not activate RXRα-dependent luciferase gene expression	did not transactivate RXRα-dependent luciferase gene expression	≥ 90	22.7 ± 5.35	induces adipocyte differentiation
									C=CCc1ccc(O)c(-c2cc(CC=C)ccc2O)c1 [magnolol, reference compound]			≥ 90	9.1 ± 9.05	
